# Experimental data: PMC4552745, “Novel Gallate Triphenylphosphonium Derivatives with Potent Antichagasic Activity” (PLoS ONE, 2015)
# What was measured:
# Leishmania brasiliensis = tested on: Leishmania brasiliensis; set-up: method as in PMID 25144225; conditions: in vitro; cited from earlier work
# T. cruzi epimastigotes = tested on: T. cruzi epimastigotes; set-up: method as in PMID 17673202; conditions: cited from earlier work
# Trypanosoma cruzi = tested on: Trypanosoma cruzi; set-up: method as in PMID 2121515; conditions: blood contaminated with Trypanosoma cruzi; cited from earlier work
# Trypanosoma brucei = tested on: Trypanosoma brucei; set-up: method as in PMID 9657042, PMID 9491765; conditions: Trypanosoma brucei models; cited from earlier work
# [1] = tested on: T. cruzi trypomastigotes (Y strain); assay: MTT reduction viability assay on isolated trypomastigotes; assay type: cell-based, Trypanosoma cruzi; conditions: for EC50: Trypanosoma cruzi, Y strain, 24 hours exposure, MTT assay, mean ± SD, read-out: EC50 T. cruzi trypomastigote; for Selectivity index (VERO/T. cruzi): ratio of EC50 VERO cells to EC50 T. cruzi trypomastigote; for potency relative to nifurtimox: trypomastigote viability, comparison of EC50
# Description: (§1) Trypomastigotes (Y strain, DTU T. cruzi II) were obtained from infected VERO cells (Chlorocebus sabaeus kidney fibroblasts obtained from ATCC, ATCC number: CCL-81). The cells were exposed to trypomastigotes (Y strain) at a 3:1 density (trypomastigote:cell). The trypomastigotes were allowed to infect the cells for 24 h, and the supernatant was then extracted. The trypomastigotes were released from VERO cells at 4 days after infection. The parasites were harvested and collected for viability assays. The effect of the drugs on parasite viability was evaluated using the tetrazolium salt (MTT) reduction assay. […] Alternatively, VERO cells attached to the surface of 96-well plates were washed and incubated with MTT (5 mg/mL). After incubation for 4 h at 37°C, the generated formazan crystals were dissolved with 100 μL of 10% (w/v) sodium dodecyl sulfate (SDS) in 0.01 M HCl. The plates were then incubated overnight at 37°C, and the optical density (OD) was determined using a microplate reader (Labsystems Multiskan MS, Finland) at 570 nm. Under these conditions, the OD is directly proportional to the number of viable cells in each well [33, 34]. All of the experiments were performed at least three times. […] The data from each experiment were plotted using the formazan absorbance versus the log of the concentration, and the plot was fitted to the dose-response (four-parameters) equation using the software Graph Pad Prism V5.0, obtaining the EC50 value per drug and per experiment. The data are expressed as the mean ± DS of the EC50s obtained from each experiment.
# VERO cells = assay: MTT reduction viability assay on VERO cells; assay type: cell-based; conditions: Chlorocebus sabaeus, 24 hours exposure, mean ± SD
# Description: as §1, with “The” for “Trypomastigotes (Y strain, DTU T. cruzi II) were obtained from infected VERO cells (Chlorocebus sabaeus kidney fibroblasts obtained from ATCC, ATCC number: CCL-81). The cells were exposed to trypomastigotes (Y strain) at a 3:1 density (trypomastigote:cell). The trypomastigotes were allowed to infect the cells for 24 h, and the supernatant was then extracted. The trypomastigotes were released from VERO cells at 4 days after infection. The parasites were harvested and collected for viability assays. The”
# [2] = tested on: T. cruzi in infected RAW 264.7 cells; assay: Parasite DNA load by real-time PCR in infected RAW cells; assay type: cell-based, Trypanosoma cruzi; conditions: infected RAW cells, 48 hours after treatment, Fig 4
# Description: DNA from infected RAW cells (murine macrophages, ATCC number: TIB-71) was isolated using Wizard Genomic DNA Purification Kit (Promega, USA) following the manufacturer’s instructions. DNA was quantified through […] absorbance measurements using a Varioskan spectrophotometer (Thermo Scientific, USA). To evaluate the parasite DNA load, we used a TaqMan-Duplex system, as described previously. To amplify an 84-bp T. cruzi satellite DNA sequence, we used the following primers: TcSt 4-Fw (5’-[…]-3’) and TcSt 1-Rev (5’-[…]-3’) and the TcSt-1 probe (5’-FAM-[…]-BHQ-1-3’). As an endogenous control, we used the Mus-F (5’-[…]-3’) and Mus-R (5’-[…]-3’) primers coupled with the MM-1 probe (5’-HEX-AAAGCATCTGCCTCCG-BHQ-1-3’) to amplify a 67-bp Mus musculus GAPDH sequence. The primers and probes were designed using Primer Express 3.0 Software (Applied Biosystems, USA) and manufactured by Integrated DNA Technologies (Coralville, IA, USA). The PCR reactions were performed using an ABI7300 real-time thermocycler (Applied Biosystems, USA). […] ROX was used as a reference dye. For both TaqMan assays, the thermal cycle consisted of a polymerase activation step carried out at 95°C for 10 min (one cycle) and a two-step amplification phase: 95°C for 15 s and 55°C for 45 s (40 cycles). Fluorescence was measured at the end of each amplification cycle. The data were analyzed using 7300 System SDS software with the SDS relative quantitation plug-in (Applied Biosystems, USA). All of the data were analyzed by the 2^-∆∆CT method, comparing the CTs of the T. cruzi gene versus that of GAPDH as well as comparing all of the samples with the controls. The parasite load is expressed as the relative DNA load compared with the controls.
# [3] = tested on: T. cruzi trypomastigotes (Y strain) mitochondrial permeability transition pore; assay: Mitochondrial permeability transition pore opening (calcein AM / CoCl2); assay type: cell-based, Trypanosoma cruzi; conditions: 5 μM, 1 hour, Fig 6B
# Description: The opening of mitochondrial permeability transition pores was assessed using the calcein AM probe, adapting the method described by Huang et al (2014). Calcein-AM is a lipophilic probe that can enter the cell, including the mitochondria, and is then cleaved by cellular esterases, releasing the fluorescent probe calcein. T. cruzi trypomastigotes (Y strain, 5 x 10^6 parasites/mL) were stained with 100 nM calcein AM (Molecular Probes, Applied Biosytems, USA) and incubated at 37°C for 15 min in the presence of […] of CoCl2 to quench the cytosolic fluorescence of calcein. Then, the parasites were washed with PBS and resuspended in RPMI medium, without phenol red, supplemented with 0.3 mM of Ca^+2. The parasites were then seeded in 24-well plates and exposed to the different compounds (TPP^+-C8, TPP^+-C10, TPP^+-C11, and TPP^+-C12) at 1 or 5 μM for 1 hour. As a positive control, one group was exposed to ionomycin (0.5 μM). The samples were measured using a FACS Aria III flow cytometer (BD Biosciences, USA) with the 494/517 filter to detect calcein fluorescence. For every measurement, 5,000 events were recorded. The raw flow cytometry data were analyzed using FACSDiva 6.1 software (BD Biosciences). The results were analyzed using the median fluorescence intensity (MFI) from the frequency histograms. Thus, we used the median intensity of the control group (parasites incubated with calcein AM and CoCl2) to establish 100% of mitochondrial fluorescence, thereby establishing percent ratios between the treatment groups and the control.
Structure (SMILES),concentration at which the effect on viability is reached (Leishmania brasiliensis),concentration at which the antiproliferative effect is observed (T. cruzi epimastigotes),concentration range at which effects are exerted (Trypanosoma cruzi),EC50 (Trypanosoma brucei) [µM],EC50 [1] [µM],Selectivity index (VERO/T. cruzi) [1],EC50 (VERO cells) [µM],potency relative to nifurtimox [1],parasite load (qPCR) [2],mitochondrial calcein fluorescence (median fluorescence intensity) [3]
"O=C(O[C@@H]1Cc2c(O)cc(O)cc2O[C@@H]1c1cc(O)c(O)c(O)c1)c1cc(O)c(O)c(O)c1 [EGCg, (-)-epigallocatechin 3-O-gallate]",over 60 μM,over 500 μM,–,–,–,–,–,–,–,–
"O=C(O)c1cc(O)c(O)c(O)c1 [GA, Gallic acid]",–,–,millimolar range,> 30,–,–,–,–,–,–
"CC1CS(=O)(=O)CCN1/N=C/c1ccc([N+](=O)[O-])o1 (stereo not drawn) [Nifurtimox, reference compound]",–,–,–,–,4.1 ± 0.9,> 24,> 100,–,–,–
"O=C(OCCCCCCCC[P+](c1ccccc1)(c1ccccc1)c1ccccc1)c1cc(O)c(O)c(O)c1.[Br-] [TPP^+-C8, triphenyl(8-((3,4,5-trihydroxybenzoyl)oxy)-octyl) phosphonium bromide]",–,–,–,–,4.8 ± 0.9,> 21,> 100,almost equal in potency to nifurtimox,the lowest concentrations of TPP^+-C8 increased the parasite load,–
"O=C(OCCCCCCCCCCC[P+](c1ccccc1)(c1ccccc1)c1ccccc1)c1cc(O)c(O)c(O)c1.[Br-] [TPP^+-C11, triphenyl(11-((3,4,5-trihydroxybenzoyl)oxy)-undecyl) phosphonium bromide]",–,–,–,–,9.2 ± 0.1,> 11,> 100,almost equal in potency to nifurtimox,reduced the parasite load in a concentration-dependent manner,41 % of the control
